Read-outs that look alike come from different tables or passages of the source.
System: MDD patients carrying the indicated conditions
Conditions: with SSRI
Procedure: Folate levels are classified as either low (<=2.5 ng/ml) or normal; and homocysteine levels as either normal or elevated (>=[…]). The presence or absence of at least one […] allele for the MTHFR gene are entered as a dichotomous variable (present or absent). […] Using folate as an example predicator, the presence or absence of a low serum-folate level along with treatment assignment can be entered in a 2×2, factorial ANOVA, using depression improvement scores (baseline minus endpoint HAM-D-17 scores) as the dependant variable. […] Similar analyses (i.e. separate 2×2 ANOVA's) can be performed substituting the presence of low folate levels for the presence of other predictors as described herein. Similarly, the effect of other predictors can be indicated by the interaction term representing the potential modulating influence of those variables.
Particularly, specific genetic and biomarkers that were assessed include the following: • (a) BMI calculation of at least about 30 kg/m^2; • (b) an expression ratio of SAM/SAH smaller than 2.8 (e.g., 2.71) as measured in a plasma sample; • (c) a level of 4-HNE no less than 3.28 μg/mL (as measured in a plasma sample); • (d) presence of rare variants CT or TT at position 677 of SEQ ID NO: 1 corresponding to a portion of a genomic nucleic acid sequence of methylenetetrahydrofolate reductase (MTHFR) (abbreviated as “MTHFR 677” below); • (e) presence of rare variants AG or GG at position 2756 of SEQ ID NO: 2 corresponding to a portion of genomic nucleic acid sequence of methionine synthase (MTR) (abbreviated as “MTR 2756” below); and • (f) presence of rare variants AG or GG at position 66 of SEQ ID NO: 3 corresponding to a portion of genomic nucleic acid sequence of methionine synthase reductase (MTRR) (abbreviated as “MTRR 66” below).
The efficacy effect is determined by measuring the mean change in the HAMD-17 score and HAMD-28 score by the end of Phase I and Phase II, as compared to the baseline.

[1] = Phase I, interaction of BMI with the treatment
[2] = Phase I, interaction of HNE-his with the treatment
[3] = Phase I, interaction of SAM/SAH with the treatment
[4] = Phase II, 25 =< BMI < 30 kg/m^2 (18, 10)

For `CN1c2c(nc(N)[nH]c2=O)NC[C@@H]1CNc1ccc(C(=O)N[C@@H](CCC(=O)O)C(=O)O)cc1` [6(S)-5-MTHF, 6(S)-5-methyltetrahydrofolate], the “Effect, change in HAMD-17 score” value (Phase I, MTRR 66 AA and HNE-His < median (8,5)) was −1.167, the “Effect, change in HAMD-28 score” value (Phase I, MTRR 66 AA and HNE-His < median = 3.28 (plasma sample)) was −4.167 and the “Effect, change in HAMD-17 score” value (Phase I, MTRR 66 AA and SAM/SAH >= median (9,6)) was −0.125. For the same compound, the “Effect, change in HAMD-28 score” value (Phase I, MTRR 66 AA and SAM/SAH >= median) was 0.500, the “Effect, change in HAMD-17 score” value (Phase I, MTRR 66 AG or GG and HNE-His >= median (24,11)) was −5.958 and the “Effect, change in HAMD-28 score” value (Phase I, MTRR 66 AG or GG and HNE-His >= median) was −6.975. For the same compound, the “Effect, change in HAMD-17 score” value (Phase I, MTRR 66 AG or GG and SAM/SAH < median (24,10)) was −5.062, the “Effect, change in HAMD-28 score” value (Phase I, MTRR 66 AG or GG and SAM/SAH < median = 2.71 (plasma sample)) was −6.498 and the “Effect, change in HAMD-17 score” value (Phase I, SAM/SAH < median and HNE-His >= median (19,7)) was −3.670. The “Effect, change in HAMD-28 score” value (Phase I, SAM/SAH < median and HNE-His >= median) was −4.227, the “Effect, change in HAMD-17 score” value (Phase I, SAM/SAH >= median and HNE-His < median (18,8)) was −0.250 and the “Effect, change in HAMD-28 score” value (Phase I, SAM/SAH >= median and HNE-His < median) was −0.750. For the same compound, the “Effect, change in HAMD-17 score: BMI*treat” value [1] was −0.567, the “Effect, change in HAMD-28 score: BMI*treat” value [1] was −0.668 and the “Effect, change in HAMD-17 score: HNE-his*treat” value [2] was −0.465. The “Effect, change in HAMD-28 score: HNE-his*treat” value [2] was −0.133, the “Effect, change in HAMD-17 score: SAM/SAH*treat” value [3] was 0.495 and the “Effect, change in HAMD-28 score: SAM/SAH*treat (last line)” value [3] was 0.972. For the same compound, the “Effect, change in HAMD-17 score: baseHAMD-17*treat” value (Phase I, interaction of base HAMD-17 with the treatment) was 0.165, the “Effect, change in HAMD-28 score: SAM/SAH*treat (first line under HAMD28)” value (Phase I, interaction with the treatment) was 0.495 and the “Effect, change in HAMD-17 score” value [4] was 2.000. The “Effect, change in HAMD-28 score” value [4] was 0.000, the “Effect, change in HAMD-17 score” value (Phase II, BMI < 25 (14, 7)) was −1.400 and the “Effect, change in HAMD-28 score” value (Phase II, BMI < 25 (14, 7)) was −2.300. The “Effect, change in HAMD-17 score” value (Phase II, BMI < 30 kg/m^2 and HNE-His < median (19, 9)) was 3.667, the “Effect, change in HAMD-28 score” value (Phase II, BMI < 30 kg/m^2 and HNE-His < median) was 1.833 and the “Effect, change in HAMD-17 score” value (Phase II, BMI < 30 kg/m^2 and SAM/SAH >= median (16,8)) was 1.500. For the same compound, the “Effect, change in HAMD-28 score” value (Phase II, BMI < 30 kg/m^2 and SAM/SAH >= median) was 2.500, the “Effect, change in HAMD-28 score” value (Phase II, BMI >= 30 kg/m^2 (40,21)) was −3.245 and the “Effect, change in HAMD-17 score” value (Phase II, BMI >= 30 kg/m^2 and HNE-His >= median (23, 11)) was −4.233. For the same compound, the “Effect, change in HAMD-28 score” value (Phase II, BMI >= 30 kg/m^2 and HNE-His >= median) was −4.933, the “Effect, change in HAMD-17 score” value (Phase II, BMI >= 30 kg/m^2 and SAM/SAH < median (21,9)) was −9.200 and the “Effect, change in HAMD-28 score” value (Phase II, BMI >= 30 kg/m^2 and SAM/SAH < median = 2.71 (plasma sample)) was −10.350. For the same compound, the “Effect, change in HAMD-17 score” value (Phase II, MTHFR 677 CC and BMI < 30 kg/m^2 (17,8)) was −2.267, the “Effect, change in HAMD-28 score” value (Phase II, MTHFR 677 CC and BMI < 30 kg/m^2) was −3.000 and the “Effect, change in HAMD-17 score” value (Phase II, MTHFR 677 CC and HNE-His < median (20,11)) was −0.857. For the same compound, the “Effect, change in HAMD-28 score” value (Phase II, MTHFR 677 CC and HNE-His < median = 3.28 (plasma sample)) was −0.536, the “Effect, change in HAMD-17 score” value (Phase II, MTHFR 677 CC and MTR 2756 AA (29,13)) was −0.571 and the “Effect, change in HAMD-28 score” value (Phase II, MTHFR 677 CC and MTR 2756 AA) was 0.048. For the same compound, the “Effect, change in HAMD-17 score” value (Phase II, MTHFR 677 CT or TT and BMI >= 30 kg/m^2 (13,6)) was −7.333, the “Effect, change in HAMD-28 score” value (Phase II, MTHFR 677 CT or TT and BMI >= 30 kg/m^2) was −8.667 and the “Effect, change in HAMD-17 score” value (Phase II, MTHFR 677 CT or TT and HNE-His >= median (11,6)) was −7.500. For the same compound, the “Effect, change in HAMD-28 score” value (Phase II, MTHFR 677 CT or TT and HNE-His >= median) was −7.500, the “Effect, change in HAMD-17 score” value (Phase II, MTHFR 677 CT or TT and MTR 2756 AG or GG (8,4)) was −10.33 and the “Effect, change in HAMD-28 score” value (Phase II, MTHFR 677 CT or TT and MTR 2756 AG or GG) was −13.00. For the same compound, the “Effect, change in HAMD-17 score” value (Phase II, MTR 2756 AA (45,21)) was −0.427, the “Effect, change in HAMD-17 score” value (Phase II, MTR 2756 AA and BMI < 30 kg/m^2 (17,7)) was 1.167 and the “Effect, change in HAMD-28 score” value (Phase II, MTR 2756 AA and BMI < 30 kg/m^2) was 0.917. For the same compound, the “Effect, change in HAMD-17 score” value (Phase II, MTR 2756 AA and HNE-His < median (26,13)) was 0.300, the “Effect, change in HAMD-28 score” value (Phase II, MTR 2756 AA and HNE-His < median) was −0.125 and the “Effect, change in HAMD-17 score” value (Phase II, MTR 2756 AA and MTRR 66 AA (11,5)) was −8.000. The “Effect, change in HAMD-17 score” value (Phase II, MTR 2756 AA and MTRR 66 AA and BMI < 30 kg/m^2 (7,4)) was −4.333, the “Effect, change in HAMD-28 score” value (Phase II, MTR 2756 AA and MTRR 66 AA and BMI < 30 kg/m^2) was −4.667 and the “Effect, change in HAMD-17 score” value (Phase II, MTR 2756 AA and MTRR 66 AA and HNE-His < median (6,4)) was −8.667. For the same compound, the “Effect, change in HAMD-28 score” value (Phase II, MTR 2756 AA and MTRR 66 AA and HNE-His < median = 3.28 (plasma sample)) was −9.000, the “Effect, change in HAMD-17 score” value (Phase II, MTR 2756 AA and MTRR 66 AA and SAM/SAH >= median (6,3)) was −7.000 and the “Effect, change in HAMD-28 score” value (Phase II, MTR 2756 AA and MTRR 66 AA and SAM/SAH >= median) was −7.500.

From patent US9540691B2, “Assays and methods for selecting a treatment regimen for a subject with depression” (THE GENERAL HOSPITAL CORPORATION, priority 2011, dated 2017)
